# Key:
# MG-63 cells = test: Reversal of dexamethasone effects in MG-63 osteoblast cells; assay type: cell-based, human
# Excerpt: The capacity of 17α-ethynyl-5-androstene-3β,7β,17β-triol to reverse adverse effects of glucocorticoids in bone growth was shown in the human MG-63 osteosarcoma cell line. MG-63 cells are osteoblasts, which are cells that mediate bone growth. This cell line has been used extensively to study bone biology and to characterize the biological activity of compounds for treatment of bone loss conditions (e.g., B. D. Boyan et al., J. Biol. Chem., 264(20):11879-11886, 1989; L. C. Hofbauer et al., Endocrinology, 140(10):4382-4389, 1999). Adverse toxicities associated with elevated glucocorticoid levels include a decrease in the production of IL-6 and IL-8 by osteoblasts, including the MG-63 cell line, and an increase in the expression of the 11β-hydroxysteroid dehydrogenase type 1 enzyme (11β-HSD). Increased 11β-hydroxysteroid dehydrogenase type 1 enzyme results in increased levels of endogenous glucocorticoid activity by converting endogenous cortisone to the active cortisol, which inhibits bone growth. The 11β-HSD enzyme is expressed in liver, adipose tissue, brain and bone tissues. Cortisol generated by 11β-HSD-1 contributes to osteoporosis and disorders such as stroke, neuron death, depression and Parkinson Disease. Decreases in IL-6, IL-8 and osteoprotegerin are associated with decreased bone growth by osteoblasts.
# NF-κB [1] = test: LPS induced inflammation in mice, activated NF-κB in spleen cell nuclei; assay type: in vivo, ICR mice; conditions: about 40 mg/kg i.p. 24 hours before and 1 hour after LPS; spleens 1.5 hours after LPS
# Procedure: The capacity of selected compounds to treat LPS induced inflammation in mice was examined by a protocol similar to the protocol described above. Five groups of three ICR mice weighing about 30 g were each treated by intraperitoneal injection with 120 μL vehicle (30% sulfobutylether-cyclodextrin in water), androst-5-ene-3α,7β,16α,17β-tetrol in vehicle, androst-5-ene-3β,4β,16α,17β-tetrol in vehicle or 4β-acetoxyandrost-5-ene-3β,16α,17β-triol in vehicle. All drug and vehicle formulations were solutions, not suspensions. The sulfobutylether-cyclodextrin was obtained commercially (Cydex Pharmaceuticals, Inc., Lexena, Kans.). There were two vehicle control groups one group received vehicle alone and the other received vehicle plus LPS. […] Drug was administered at about 40 mg/kg (1.2 mg drug/animal for each administration of the drugs). Spleens were harvested from the animals at 1.5 hours after injection of LPS and spleen cells were lysed and assayed for activated NF-κB by isolating nuclei from spleen cells and measuring NF-κB from the lysed nuclei. […] The level of activated NF-κB in spleen cells from the animals that were treated with vehicle and no LPS, was essentially the same as the activated NF-κB in spleen cells from drug treated animals.
# [2] = test system: popliteal lymph node cells; test: reporter antigen popliteal lymph node (PLN) assay, immune suppression; assay type: in vivo, BALB/C mice; conditions: 0.1 and 1 mg/day oral gavage
# Excerpt: Analysis of immune suppression. Glucocorticoid steroids such as dexamethasone, prednisolone or hydrocortisone are typically immune suppressive and have significant toxicities associated with their use. Immune suppression was examined in a reporter antigen popliteal lymph node assay in mice essentially as previously described (C. Goebel et al., Inflamm. Res., 45(Suppl. 2):S85-S90, 1996; R. Pieters et al., Environmental Health Perspectives 107(Suppl. 5):673-677, 1999). […] In this protocol, the vehicle was 0.1% carboxymethylcellulose, 0.9% saline, 2% tween 80 and 0.05% phenol, which contained 17α-ethynylandrost-5-ene-3β,7β,17β-triol in suspension in drug treated animals. Assessment of activity included (1) measuring suppression of numbers of total lymphocytes, antigen specific IgM, IgG1 and IgG2a antibody secreting cells (ASC) (ELISPOT assay) in popliteal lymph node cells; (2) analysis of cell surface marker (CD4, CD8, CD19, F480, CD80, CD86) expression by flow cytometry of living cells in suspension; and (3) IL-4, TNFα and IFNγ production by lymphocytes in vitro (ELISA).
# Groups (n=5 per group) of specific pathogen free BALB/C mice were used. […] The results were analyzed by two-tailed Student's t-test with equal variance. […] Single cell suspensions were prepared, resuspended in 1 mL PBS-BSA (1%) and counted. Cell numbers, IL-4, IL-5 and IFNγ were measured.
# NF-κB [3] = test: Kinetic analysis of NF-kB inhibition in vivo after LPS, ELISA of NF-κB in spleen cell nuclei; set-up: species or system mice; conditions: about 40 mg/kg i.p. 24 hours before LPS
# Procedure: Kinetic analysis of NF-kB inhibition in vivo. […] In this study, mice were treated with 17α-ethynylandrost-5-ene-3β,7β,17β-triol (about 40 mg/kg, about 1.2 mg/animal) by intraperitoneal injection of a solution (not a suspension) of the compound in vehicle (120 μL vehicle; 30% sulfobutylether-cyclodextrin in water). The drug was injected 24 hours before intraperitoneal injection of bacterial LPS (about an LD50/24). The study used two groups of 12 animals, vehicle control or drug administered 24 hours before LPS challenge. Spleens were harvested from 3 animals from both groups just before LPS challenge and at 1.5, 2.0 and 2.5 hours after administration of LPS. Spleen cells were harvested and the level of activated NF-κB was measured by assay of NF-κB in nuclei.
# Maximum NF-κB activation after LPS administration occurred at 1.5 hours in the vehicle controls, which was 4-fold increased over the pre-LPS level of activated NF-κB. The values for the vehicle control and drug treated animals are relative optical density units from ELISA measurement of NF-κB in nuclei from spleen cells.
# osteoprotegerin = test: Osteoprotegerin levels in mice treated daily with dexamethasone; assay type: in vivo
# Procedure: Osteoprotegerin levels in mice that were treated with vehicle and dexamethasone at 10 μg/day (positive control group) had 3.3 pmol/L osteoprotegerin, while animals treated with vehicle, dexamethasone and 17α-ethynyl-5-androstene-3β,7β,17β-triol at 4 mg/kg/day had 6.4 pmol/L osteoprotegerin (p<0.05).
# EAE = conditions: administered at the same time the animals were immunized; cited from earlier work
# [4] = test system: experimental autoimmune encephalomyelitis (EAE); test: PLP-induced experimental autoimmune encephalomyelitis (EAE); assay type: in vivo, SJL mice; conditions: for course of EAE compared to vehicle-treated mice: 0.1 mg q.d. po from clinical onset to day 30 post immunization; for cumulative incidence of EAE or lethality: 0.1 mg q.d. po; for mean cumulative score, follow-up period (day 31 to day 54, post treatment): after end of treatment on day 30
# [5] = compound at 10 nM, 30 nM dexamethasone
compound,measurement,setting,value
"CC12CCC(O)CC1=CC(O)C1C2CCC2(C)C(O)C(O)CC12 (stereo not drawn) [5-androstene-3β,7β,16α,17β-triol]",reversal of the decrease in osteoprotegerin synthesis by MG-63 cells,"MG-63 cells; compound at 0.1 μM, 30 nM dexamethasone",normal osteoprotegerin levels
"C[C@]12CC[C@H]3[C@@H](CC=C4[C@@H](O)[C@@H](O)CC[C@@]43C)[C@@H]1C[C@@H](O)[C@@H]2O [androst-5-ene-3β,4β,16α,17β-tetrol]",decrease of the level of NF-κB activation compared to the LPS+vehicle control group,NF-κB [1],about 50%
"C#C[C@]1(O)CC[C@H]2[C@@H]3[C@@H](O)C=C4C[C@@H](O)CC[C@]4(C)[C@H]3CC[C@@]21C [17α-ethynylandrost-5-ene-3β,7β,17β-triol]",immune suppression in PLN assay,[2],"not immune suppressive, but was immune enhancing"
same,reversal of the decrease in osteoprotegerin synthesis by MG-63 cells,"MG-63 cells; compound at 1 nM, 7 hours with 30 nM dexamethasone",completely reversed
same,NF-κB in nuclei from spleen cells,NF-κB [3]; 0 hours (just before LPS),22 relative optical density units
same,NF-κB in nuclei from spleen cells,NF-κB [3]; 1.5 hours after LPS,2 relative optical density units
same,NF-κB in nuclei from spleen cells,NF-κB [3]; 2.0 hours after LPS,7 relative optical density units
same,NF-κB in nuclei from spleen cells,NF-κB [3]; 2.5 hours after LPS,9 relative optical density units
same,osteoprotegerin levels in mice,"osteoprotegerin; vehicle, dexamethasone 10 μg/day and compound at 4 mg/kg/day, 23 days, p<0.05",6.4 pmol/L
"Cc1cc(C)c(/C=C2\C(=O)Nc3ccccc32)[nH]1 [SU5416, Z-3-[(2,4-dimethylpyrrol-5-yl)methylidenyl]-2-indolinone, reference compound]",efficacy in EAE,EAE,effective
same,course of EAE compared to vehicle-treated mice,[4],ineffective
"C[C@@H]1C[C@H]2[C@@H]3CCC4=CC(=O)C=C[C@]4(C)[C@@]3(F)[C@@H](O)C[C@]2(C)[C@@]1(O)C(=O)CO [dexamethasone, reference compound]",osteoprotegerin levels in mice,osteoprotegerin; vehicle and dexamethasone at 10 μg/day for 23 days (positive control group),3.3 pmol/L
"C[C@]12CC[C@H]3[C@@H]([C@@H](O)C=C4C[C@@H](O)CC[C@@]43C)[C@@H]1C[C@@H](O)[C@@H]2O [3β,7β,16α,17β-tetrahydroxyandrost-5-ene]",cumulative incidence of EAE or lethality,[4],none of these 3 compounds significantly influenced
same,course of EAE compared to vehicle-treated mice,"[4]; listed as androst-5-ene-3β,7β,16α,17β-tetrol",powerful anti-inflammatory properties
"C#C[C@@]1(O)CC[C@H]2[C@@H]3[C@@H](O)C=C4C[C@@H](O)CC[C@]4(C)[C@H]3CC[C@@]21C [17β-ethynylandrost-5-ene-3β,7β,17α-triol]",course of EAE compared to vehicle-treated mice,[4],powerful anti-inflammatory properties
same,"mean cumulative score, follow-up period (day 31 to day 54, post treatment)",[4],18.4±20.6
"C[C@]12CC[C@H](O)CC1=CC[C@@H]1[C@@H]2CC[C@@]2(C)[C@H]1CC[C@@]2(O)C(F)(F)F [17α-trifluoromethylandrost-5-ene-3β,17β-diol]",cumulative incidence of EAE or lethality,[4],none of these 3 compounds significantly influenced
same,course of EAE compared to vehicle-treated mice,[4],powerful anti-inflammatory properties
"CC(=O)O[C@@H]1C2=CC[C@H]3[C@@H]4C[C@@H](O)[C@H](O)[C@@]4(C)CC[C@@H]3[C@@]2(C)CC[C@@H]1O [4β-acetoxyandrost-5-ene-3β,16α,17β-triol]",decrease of the level of NF-κB activation compared to the LPS+vehicle control group,NF-κB [1],about 50%
"C[C@]12CC[C@H]3[C@@H]([C@@H](O)C=C4C[C@H](O)CC[C@@]43C)[C@@H]1C[C@@H](O)[C@@H]2O [3α,7β,16α,17β-tetrahydroxyandrost-5-ene]",reversal of the decrease in osteoprotegerin synthesis by MG-63 cells,MG-63 cells; [5],normal osteoprotegerin levels
same,decrease of the level of NF-κB activation compared to the LPS+vehicle control group,NF-κB [1],about 50%
"C[C@]12CC[C@H]3[C@@H]([C@H](O)C=C4C[C@@H](O)CC[C@@]43C)[C@@H]1C[C@@H](O)[C@@H]2O [3β,7α,16α,17β-tetrahydroxyandrost-5-ene]",reversal of the decrease in osteoprotegerin synthesis by MG-63 cells,MG-63 cells; [5],near normal osteoprotegerin levels
"C[C@]12CC[C@H]3[C@@H](CC=C4C[C@](O)(C(F)(F)F)CC[C@@]43C)[C@@H]1CC[C@@H]2O [3α-trifluoromethylandrost-5-ene-3β,17β-diol]",cumulative incidence of EAE or lethality,[4],none of these 3 compounds significantly influenced
same,course of EAE compared to vehicle-treated mice,[4],powerful anti-inflammatory properties
same,"mean cumulative score, follow-up period (day 31 to day 54, post treatment)",[4],10.8±10.3
